Results: ChEMBL document CHEMBL3045792, “Synthesis, antimicrobial activity, and molecular modeling of novel 4-(3-(4-benzylpiperazin-1-yl)propoxy)-7-methoxy-3-substituted phenyl-2H-chromen-2-one” (2013)
Active and inactive are the calls of the source. The rule behind the calls is not given here.

Tests used:
Format in all cases: functional
[1] = system: Staphylococcus aureus; assay: Antibacterial activity against Staphylococcus aureus assessed as growth inhibition at 600 ug/ml by NCCLS […] method; conditions: read-out: IZ
[2] = system: Bacillus pumilus; assay: Antibacterial activity against Bacillus pumilus assessed as growth inhibition at 900 ug/ml by NCCLS […] method; conditions: read-out: IZ
[3] = system: Bacillus pumilus; assay: Antibacterial activity against Bacillus pumilus assessed as growth inhibition at 600 ug/ml by NCCLS […] method; conditions: read-out: IZ
[4] = system: Priestia megaterium; assay: Antibacterial activity against Bacillus megaterium assessed as growth inhibition at 900 ug/ml by NCCLS […] method; conditions: read-out: IZ
[5] = system: Priestia megaterium; assay: Antibacterial activity against Bacillus megaterium assessed as growth inhibition at 600 ug/ml by NCCLS […] method; conditions: read-out: IZ
[6] = system: Bacillus subtilis; assay: Antibacterial activity against Bacillus subtilis assessed as growth inhibition at 900 ug/ml by NCCLS […] method; conditions: read-out: IZ
[7] = system: Bacillus subtilis; assay: Antibacterial activity against Bacillus subtilis assessed as growth inhibition at 600 ug/ml by NCCLS […] method; conditions: read-out: IZ
[8] = system: Klebsiella aerogenes; assay: Antibacterial activity against Enterobacter aerogenes assessed as growth inhibition at 900 ug/ml by NCCLS […] method; conditions: read-out: IZ
[9] = system: Klebsiella aerogenes; assay: Antibacterial activity against Enterobacter aerogenes assessed as growth inhibition at 600 ug/ml by NCCLS […] method; conditions: read-out: IZ
[10] = system: Klebsiella pneumoniae; assay: Antibacterial activity against Klebsiella pneumoniae assessed as growth inhibition at 900 ug/ml by NCCLS […] method; conditions: read-out: IZ
[11] = system: Klebsiella pneumoniae; assay: Antibacterial activity against Klebsiella pneumoniae assessed as growth inhibition at 600 ug/ml by NCCLS […] method; conditions: read-out: IZ
[12] = system: Proteus mirabilis; assay: Antibacterial activity against Proteus mirabilis assessed as growth inhibition at 900 ug/ml by NCCLS […] method; conditions: read-out: IZ
[13] = system: Proteus mirabilis; assay: Antibacterial activity against Proteus mirabilis assessed as growth inhibition at 600 ug/ml by NCCLS […] method; conditions: read-out: IZ
[14] = system: Proteus vulgaris; assay: Antibacterial activity against Proteus vulgaris assessed as growth inhibition at 900 ug/ml by NCCLS […] method; conditions: read-out: IZ
[15] = system: Proteus vulgaris; assay: Antibacterial activity against Proteus vulgaris assessed as growth inhibition at 600 ug/ml by NCCLS […] method; conditions: read-out: IZ
[16] = system: Escherichia coli; assay: Antibacterial activity against Escherichia coli assessed as growth inhibition at 900 ug/ml by NCCLS […] method; conditions: read-out: IZ
[17] = system: Fusarium oxysporum; assay: Antifungal activity against Fusarium oxysporum assessed as growth inhibition at 900 ug/ml; conditions: read-out: IZ
[18] = system: Fusarium oxysporum; assay: Antifungal activity against Fusarium oxysporum assessed as growth inhibition at 600 ug/ml; conditions: read-out: IZ
[19] = system: Fusarium oxysporum; assay: Antifungal activity against Fusarium oxysporum assessed as growth inhibition at 300 ug/ml; conditions: read-out: IZ
[20] = system: Candida albicans; assay: Antifungal activity against Candida albicans assessed as growth inhibition at 1200 ug/ml
[21] = system: Candida albicans; assay: Antifungal activity against Candida albicans assessed as growth inhibition at 900 ug/ml
[22] = system: Candida albicans; assay: Antifungal activity against Candida albicans assessed as growth inhibition at 600 ug/ml
[23] = system: Candida albicans; assay: Antifungal activity against Candida albicans assessed as growth inhibition at 300 ug/ml
[24] = system: Streptococcus pyogenes; assay: Antibacterial activity against Streptococcus pyogenes assessed as growth inhibition at 600 ug/ml by NCCLS […] method; conditions: read-out: IZ
[25] = system: Streptococcus pyogenes; assay: Antibacterial activity against Streptococcus pyogenes assessed as growth inhibition at 900 ug/ml by NCCLS […] method; conditions: read-out: IZ
[26] = system: Staphylococcus aureus; assay: Antibacterial activity against Staphylococcus aureus assessed as growth inhibition at 900 ug/ml by NCCLS […] method; conditions: read-out: IZ
[27] = system: Escherichia coli; assay: Antibacterial activity against Escherichia coli assessed as growth inhibition at 600 ug/ml by NCCLS […] method; conditions: read-out: IZ
[28] = system: Colletotrichum falcatum; assay: Antifungal activity against Glomerella tucumanensis assessed as growth inhibition at 1200 ug/ml; conditions: read-out: IZ
[29] = system: Colletotrichum falcatum; assay: Antifungal activity against Glomerella tucumanensis assessed as growth inhibition at 900 ug/ml; conditions: read-out: IZ
[30] = system: Colletotrichum falcatum; assay: Antifungal activity against Glomerella tucumanensis assessed as growth inhibition at 600 ug/ml; conditions: read-out: IZ
[31] = system: Colletotrichum falcatum; assay: Antifungal activity against Glomerella tucumanensis assessed as growth inhibition at 300 ug/ml; conditions: read-out: IZ
[32] = system: Exserohilum rostratum; assay: Antifungal activity against Setosphaeria rostrata assessed as growth inhibition at 1200 ug/ml; conditions: read-out: IZ
[33] = system: Exserohilum rostratum; assay: Antifungal activity against Setosphaeria rostrata assessed as growth inhibition at 900 ug/ml; conditions: read-out: IZ
[34] = system: Exserohilum rostratum; assay: Antifungal activity against Setosphaeria rostrata assessed as growth inhibition at 600 ug/ml; conditions: read-out: IZ
[35] = system: Exserohilum rostratum; assay: Antifungal activity against Setosphaeria rostrata assessed as growth inhibition at 300 ug/ml; conditions: read-out: IZ
[36] = system: Fusarium oxysporum; assay: Antifungal activity against Fusarium oxysporum assessed as growth inhibition at 1200 ug/ml; conditions: read-out: IZ

**Q.** What does the source list for COc1ccc2c(OCCCN3CCN(Cc4ccc[nH]4)CC3)c(-c3ccccc3)c(=O)oc2c1?
**A.** zone of inhibition at 600 µg/mL [1]: 14.8 mm; zone of inhibition at 900 µg/mL [2]: 15.5 mm; zone of inhibition at 600 µg/mL [3]: 7.49 mm; zone of inhibition at 900 µg/mL [4]: 12.4 mm; zone of inhibition at 600 µg/mL [5]: 6.32 mm; zone of inhibition at 900 µg/mL [6]: 7.87 mm; zone of inhibition at 600 µg/mL [7]: 4.21 mm; zone of inhibition at 900 µg/mL [8]: 8.9 mm; zone of inhibition at 600 µg/mL [9]: 4.78 mm; zone of inhibition at 900 µg/mL [10]: 8.12 mm; zone of inhibition at 600 µg/mL [11]: 4.21 mm; zone of inhibition at 900 µg/mL [12]: 19.4 mm; zone of inhibition at 600 µg/mL [13]: 10.9 mm; zone of inhibition at 900 µg/mL [14]: 16 mm; zone of inhibition at 600 µg/mL [15]: 8.12 mm; zone of inhibition at 900 µg/mL [16]: 6.04 mm; zone of inhibition at 900 µg/mL [17]: 20 mm; zone of inhibition at 600 µg/mL [18]: 10.2 mm; zone of inhibition at 300 µg/mL [19]: 5.34 mm; zone of inhibition at 1200 µg/mL ([20]; read-out: IZ): 27 mm; zone of inhibition at 900 µg/mL ([21]; read-out: IZ): 13.9 mm; zone of inhibition at 600 µg/mL ([22]; read-out: IZ): 7.77 mm; zone of inhibition at 300 µg/mL ([23]; read-out: IZ): 4.02 mm; zone of inhibition at 600 µg/mL [24]: 9.1 mm; zone of inhibition at 900 µg/mL [25]: 18 mm; zone of inhibition at 900 µg/mL [26]: 25.3 mm; zone of inhibition at 600 µg/mL [27]: 3.22 mm; zone of inhibition at 1200 µg/mL [28]: 19.6 mm; zone of inhibition at 900 µg/mL [29]: 10.1 mm; zone of inhibition at 600 µg/mL [30]: 5.84 mm; zone of inhibition at 300 µg/mL [31]: 3.02 mm; zone of inhibition at 1200 µg/mL [32]: 25.3 mm; zone of inhibition at 900 µg/mL [33]: 13.9 mm; zone of inhibition at 600 µg/mL [34]: 7.01 mm; zone of inhibition at 300 µg/mL [35]: 3.54 mm; zone of inhibition at 1200 µg/mL [36]: 31.6 mm

**Q.** CCCOc1ccc(CN2CCN(CCCOc3c(-c4ccccc4)c(=O)oc4cc(OC)ccc34)CC2)cc1 was tested. Which zone of inhibition at 600 µg/mL [1] did it give?
**A.** 1.55 mm

**Q.** What about the zone of inhibition at 900 µg/mL [2] of the same molecule?
**A.** 6.8 mm

**Q.** What about the zone of inhibition at 600 µg/mL [3] of the same molecule?
**A.** 3.2 mm

**Q.** What about the zone of inhibition at 900 µg/mL [4] of the same molecule?
**A.** 8.4 mm

**Q.** What about the zone of inhibition at 600 µg/mL [5] of the same molecule?
**A.** 4.2 mm

**Q.** And the zone of inhibition at 900 µg/mL [6]?
**A.** 4.25 mm

**Q.** And the zone of inhibition at 600 µg/mL [7]?
**A.** 2.5 mm

**Q.** And the zone of inhibition at 900 µg/mL [8]?
**A.** 4.02 mm

**Q.** And the zone of inhibition at 600 µg/mL [9]?
**A.** 2 mm

**Q.** What about the zone of inhibition at 900 µg/mL [10] of the same molecule?
**A.** 4.25 mm

**Q.** What about the zone of inhibition at 600 µg/mL [11] of the same molecule?
**A.** 2.04 mm

**Q.** And the zone of inhibition at 900 µg/mL [12]?
**A.** 2.48 mm

**Q.** And the zone of inhibition at 600 µg/mL [13]?
**A.** 1.02 mm

**Q.** And the zone of inhibition at 900 µg/mL [14]?
**A.** 8.09 mm

**Q.** And the zone of inhibition at 600 µg/mL [15]?
**A.** 4.2 mm

**Q.** What about the zone of inhibition at 900 µg/mL [16] of the same molecule?
**A.** 3.49 mm

**Q.** What about the zone of inhibition at 900 µg/mL [17] of the same molecule?
**A.** 12.1 mm

**Q.** What about the zone of inhibition at 600 µg/mL [18] of the same molecule?
**A.** 4.92 mm

**Q.** And the zone of inhibition at 300 µg/mL [19]?
**A.** 2.48 mm

**Q.** And the “growth inhibition (GI)” value [20]?
**A.** inactive

**Q.** And the “growth inhibition (GI)” value [21]?
**A.** inactive

**Q.** What about the “growth inhibition (GI)” value [22] of the same molecule?
**A.** inactive

**Q.** What about the “growth inhibition (GI)” value [23] of the same molecule?
**A.** inactive

**Q.** And the zone of inhibition at 600 µg/mL [24]?
**A.** 3.25 mm

**Q.** And the zone of inhibition at 900 µg/mL [25]?
**A.** 6.84 mm

**Q.** What about the zone of inhibition at 900 µg/mL [26] of the same molecule?
**A.** 3.25 mm

**Q.** And the zone of inhibition at 600 µg/mL [27]?
**A.** 1.25 mm

**Q.** What about the zone of inhibition at 1200 µg/mL [28] of the same molecule?
**A.** 32.5 mm

**Q.** And the zone of inhibition at 900 µg/mL [29]?
**A.** 16.8 mm

**Q.** What about the zone of inhibition at 600 µg/mL [30] of the same molecule?
**A.** 7.6 mm

**Q.** And the zone of inhibition at 300 µg/mL [31]?
**A.** 4.49 mm

**Q.** What about the zone of inhibition at 1200 µg/mL [32] of the same molecule?
**A.** 28.6 mm

**Q.** And the zone of inhibition at 900 µg/mL [33]?
**A.** 14.6 mm

**Q.** What about the zone of inhibition at 600 µg/mL [34] of the same molecule?
**A.** 6.02 mm

**Q.** And the zone of inhibition at 300 µg/mL [35]?
**A.** 3.25 mm

**Q.** What about the zone of inhibition at 1200 µg/mL [36] of the same molecule?
**A.** 19.8 mm
